# Test results: US6943191B1, “Disubstituted lavendustin A analogs and pharmaceutical composition comprising the analogs” (The United States of America as represented by the …, priority 1998, dated 2005)
# Like-named read-outs stand apart in the source and are kept apart here.
# How the values were obtained:
# [1] = molecular target: T1, p210^bcr-abl (Homo sapiens, UniProt P00519); test: Inhibition of in vitro auto-phosphorylation of p210^bcr-abl, immune-complex kinase assay; assay type: biochemical; details: for IC50: immune complex kinase assay, 3 experiments, read-out: Enzyme Assays IC50 (μM) p210bcl-abl in vitro phosphorylation; for IC50 (p210^ber-abi in vitro phosphorylation): Table 4
# T1 construct: immune complexes containing ^32P-labeled p210^bcr-abl were collected on protein Sepharose beads; BCR (N-terminal part of the breakpoint cluster region protein, natural fusion partner); endogenous in cells; host or cells: K562 cells (lysate, immunoprecipitated on Protein A-Sepharose); the other entry of the earlier key: BCR (P11274, Breakpoint cluster region protein)
# T1 sequence (P00519 with tags, fused parts or gaps): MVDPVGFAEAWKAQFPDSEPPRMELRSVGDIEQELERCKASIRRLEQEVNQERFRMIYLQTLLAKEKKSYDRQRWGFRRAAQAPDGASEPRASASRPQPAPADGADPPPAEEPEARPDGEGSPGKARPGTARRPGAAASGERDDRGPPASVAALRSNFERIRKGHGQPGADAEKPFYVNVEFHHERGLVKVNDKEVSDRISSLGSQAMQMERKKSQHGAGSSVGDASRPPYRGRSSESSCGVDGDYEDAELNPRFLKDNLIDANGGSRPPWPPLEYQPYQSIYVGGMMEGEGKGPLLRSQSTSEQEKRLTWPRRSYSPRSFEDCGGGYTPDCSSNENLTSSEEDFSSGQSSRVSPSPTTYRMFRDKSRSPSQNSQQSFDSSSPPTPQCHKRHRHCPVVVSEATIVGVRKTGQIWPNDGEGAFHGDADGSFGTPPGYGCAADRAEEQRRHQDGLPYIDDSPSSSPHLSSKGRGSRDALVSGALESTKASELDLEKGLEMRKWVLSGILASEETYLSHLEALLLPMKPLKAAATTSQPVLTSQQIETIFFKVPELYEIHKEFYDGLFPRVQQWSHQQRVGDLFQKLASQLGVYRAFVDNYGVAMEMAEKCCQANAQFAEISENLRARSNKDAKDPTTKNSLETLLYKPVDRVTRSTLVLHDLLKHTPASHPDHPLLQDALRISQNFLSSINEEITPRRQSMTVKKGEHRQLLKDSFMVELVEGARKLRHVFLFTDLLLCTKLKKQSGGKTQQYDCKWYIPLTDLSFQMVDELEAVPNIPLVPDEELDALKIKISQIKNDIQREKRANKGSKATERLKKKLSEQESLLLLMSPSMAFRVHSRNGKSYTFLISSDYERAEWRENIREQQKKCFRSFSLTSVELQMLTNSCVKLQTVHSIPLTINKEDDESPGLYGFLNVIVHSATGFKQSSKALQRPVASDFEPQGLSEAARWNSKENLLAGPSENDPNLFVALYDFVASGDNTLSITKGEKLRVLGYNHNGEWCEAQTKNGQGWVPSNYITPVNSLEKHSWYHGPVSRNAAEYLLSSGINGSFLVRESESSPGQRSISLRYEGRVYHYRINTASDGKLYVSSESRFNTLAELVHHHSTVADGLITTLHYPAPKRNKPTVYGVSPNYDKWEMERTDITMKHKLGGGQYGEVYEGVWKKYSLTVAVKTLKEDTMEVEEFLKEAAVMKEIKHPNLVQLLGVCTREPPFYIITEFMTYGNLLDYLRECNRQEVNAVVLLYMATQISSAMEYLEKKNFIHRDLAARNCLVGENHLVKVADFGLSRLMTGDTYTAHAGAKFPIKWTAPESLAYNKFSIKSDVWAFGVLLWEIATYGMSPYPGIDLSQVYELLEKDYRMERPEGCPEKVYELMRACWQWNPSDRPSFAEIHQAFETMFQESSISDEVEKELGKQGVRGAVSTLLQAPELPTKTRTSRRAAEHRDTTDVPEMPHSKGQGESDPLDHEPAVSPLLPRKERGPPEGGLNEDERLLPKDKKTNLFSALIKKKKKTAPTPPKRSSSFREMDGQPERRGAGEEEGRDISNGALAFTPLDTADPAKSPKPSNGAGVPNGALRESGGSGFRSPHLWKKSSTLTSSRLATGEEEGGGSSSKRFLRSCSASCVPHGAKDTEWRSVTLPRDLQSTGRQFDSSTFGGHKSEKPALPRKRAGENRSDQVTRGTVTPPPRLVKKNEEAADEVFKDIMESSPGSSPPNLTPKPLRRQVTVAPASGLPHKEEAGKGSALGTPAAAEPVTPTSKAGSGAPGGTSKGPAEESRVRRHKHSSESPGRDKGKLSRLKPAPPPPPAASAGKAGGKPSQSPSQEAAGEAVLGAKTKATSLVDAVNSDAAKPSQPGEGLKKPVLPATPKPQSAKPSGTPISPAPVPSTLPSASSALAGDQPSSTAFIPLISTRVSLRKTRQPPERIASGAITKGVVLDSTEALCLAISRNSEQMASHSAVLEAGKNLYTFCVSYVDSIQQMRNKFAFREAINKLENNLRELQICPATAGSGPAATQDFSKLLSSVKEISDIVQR
# Description: Inhibition of in vitro auto-phosphorylation of p210^bcr-abl in immune-complex kinase assays were conducted as follows. K562 cell line cells were washed twice in […]. The washed cells were lysed in PLC lysis buffer 150 mM HEPES (pH 7.5), 150 mM NaCl, 10% (v/v) glycerol, 1% (v/v) Triton X-100, 1.5 mM MgCl2, 1 mM EGTA. 10 μg/ml leupeptin, 10 μg/ml aprotinin, 1 mM sodium orthovanadate. 10 mM sodium pyrophosphate, 100 mM sodium fluoride and 1 mM phenylmethyl sulfonyl fluoride| Cell lysates were centrifuged at 100,000 g for 15 minutes and the supernatant collected. Protein concentrations of the clarified supernatants were determined by the Bradford Protein Assay, and the same quantity of protein was immunoprecipitated from control (vehicle-treated) and drug-treated cells. Cell lysates were incubated and gently rocked at 4° C. for 4 hours overnight with antibodies. Immune complexes were collected by incubation with Protein A-Sepharose beads (Pharmacia, Piscataway N.J.) and immune complexes (beads) were washed three times with HNTG buffer [20 mM HEPES (pH 7.5), 10% glycerol, 0.1% Triton X-100, 150 mM NaCl and 1 mM sodium orthovanadate] to remove unbound material. Bound proteins were boiled for 5 minutes in 2×SDS sample buffer (63 mM Tris-HCl, ph 6.8; 10% glycerol; 2% SDS; 0.0025% bromophenol blue: and […] 2 mercaptoethanol) prior to SDS-PAGE. Proteins were resolved on 4-20% gradient mini gels from Novex Experimental Technology (San Diego, Calif.).
# After SDS-PAGE, proteins were electrophoretically transferred onto Immobilon polyvinylidene difluoride (PVDF) membranes (Millipore, Bedford, Mass.) at 250 mA for 4 hours at 4° C. using 2× Tris glycine transfer buffer (50 mM Tris, glycine), 20% methanol and 0.1% SDS. Residual binding sites on the membrane were blocked by incubation in TTS (20 mM Tris pH 7.4, 0.9% NaCl and 0.05% Tween 20) containing 3% BSA overnight at 4° C. or for 4 hours at room temperature. Blots were incubated for 1-1.5 hours with TTS containing 0.3% BSA with 1 μg/ml of mouse anti-P-Tyr, 2 μg/ml of mouse anti-Grb2 or 1 μg/ml of rabbit anti-She antibody. Blots were washed three times for 6 minutes each with TTS containing 0.3% BSA and probed with a 1:1000 dilution of rabbit anti-mouse antibody or directly with [^125I]Protein A (Amersham, Arlington Heights, Ill.) in blocking solutions. Proteins were visualized by autoradiography (exposed for 1-2 days at −70° C.).
# The p210^bcr-abl, protein immunoprecipitates were washed twice with HTNG buffer Immunoprecipitates were washed once with 50 mM Tris (pH 7.0) and distributed to each reaction in 20 μl of 20 mM PIPES [piperazine-N,N′-bis(ethanesulfonic acid)] (pH 7.0)−20 mM MnCl2. Then, 10 μl of compounds made according to the present invention at desired concentrations from working stock solution prepared in 20 mM PIPEs (pH 7.0)−20 mM MnCl2 were added to each reaction tube. Reactions were initiated with the addition of 10 μl of [γ-^33P]ATP (10 μCi per sample, 3000 Ci/mmol; Amersham), incubated for 20 minutes at 30° C., stopped by addition of 10 μl of 5×SDS sample buffer, heated at 100° C. for 5 minutes, and analyzed on 4-20% SDS-PAGE and by autoradiography.
# To assess the effect of drugs added in vitro on the state of p210^bcr-abl in the immune complexes, K562 cells were labeled with ^32P, lysed in PLC buffer and immune complexes containing ^32P-labeled p210^bcr-abl were collected on protein Sepharose beads and beads were washed four times with HNTG buffer. Immune complexes were divided into several tubes in 30 μl of PLC buffer in the presence of compounds made as described herein.
# [2] = test system: K562 cells; test: K562 cell culture and growth assay, 6 day MTT; assay type: cell-based, human; details: K562, 6 days
# Description: This example describes the procedure used for cell culture and growth assays. Human leukemia, Philadelphia-chromosome-positive CML cell line K562 was obtained from ATCC (Rockville, Md.). Cells were cultured in RPMI medium containing 10% fetal calf serum, 2 mM glutamine, 100 units/ml of penicillin and 100 μg/ml streptomycin Cells (2×10^3 cells/well) were incubated with increasing concentrations of compounds of the present invention dissolved in DMSO in a final volume of 200 μl in 96-well plates. Control cells were incubated with medium containing identical concentrations of the DMSO solvent. Growth of K562 cells was quantitated after 6 days by ability of living cells to reduce the yellow dye 3-(4,5-dimethylthiazolyl)-2,5-diphenyltetrazolium bromide (MTT) to a blue formazan product. Further information concerning this procedure is provided by Mossman T., “Rapid Colorimetric Assay for Cellular Growth and Survival—Application to Proliferation and Cytotoxicity Assays,” J. Immunol. Methods 1983, 65:55-63, which is incorporated herein by reference.
# [3] = test system: panel of approximately 60 different human tumor cell lines; test: National Cancer Institute drug screen, mean-graph parameters; assay type: cell-based; details: mean over cell line panel, two days exposure; for GI50: Homo sapiens, 48 h
# Description: Compounds of the present invention also have been subjected to the drug screening procedure employed by the National Cancer Institute for the screening of drugs having possible anticancer utility. The screening procedure uses a diverse, disease-oriented panel consisting of approximately 60 different human tumor cell lines organized into disease-specific subpanels. The compounds of the present invention were tested over a range of concentrations for cytotoxic or growth-inhibitory effects against cell lines comprising the panel. The eight subpanels represented diverse histologies (leukemias, melanomas, and tumors of the lung, colon, kidney, breast, ovary, and brain).
# Compounds of the present invention were tested over a period of two days. During this period the cells were continuously exposed to various concentrations of the compounds tested. The tests produced individual dose-responses, one for each cell line (i.e. one for each example), and the data were represented in dose-response curves. The data provided by these dose response curves were summarized using a mean-graph format.
# To produce data for the mean-graph format, a compound concentration that produced a target level response was calculated for each cell line. Three different response parameters were evaluated. The first response parameter was the growth inhibition (“GI50”). GI50 is the concentration of compounds made according to the present invention that produced an apparent 50% decrease in the number of tumor cells relative to the appropriate control (not exposed to the compounds of the present invention) at the end of the incubation period.
# The second response parameter was the total growth inhibition (“TGI”). TGI is the concentration at which the number of tumor cells remaining at the end of the incubation period substantially equal the number of tumor cells existing at the start of the incubation period.
# The third response parameter was the lethal concentration (“LC50”) LC50 is the concentration of compounds made according to the present invention that caused an apparent 50 percent reduction in the number of tumor cells […] at the start of the incubation period.
# In a typical GI50 mean graph, the relative position of the vertical reference line along the horizontal concentration axis was obtained by averaging the negative log10GI50 values for all the cell lines tested against the compound. Horizontal bars were then plotted for the individual negative log10GI50 values of each cell line relative to the vertical reference line. The GI50 graph thus provided a characteristic fingerprint for the compound, displaying the individual cell lines that are proportionately more sensitive than average (bars extending to the right of the reference line) or proportionately less sensitive than average (bars extending to the left of the reference line). The length of a bar was proportional to the difference between the log10GI50 value obtained with the particular cell line and the mean (represented by the vertical reference line).
# Similar mean graphs were prepared for the TGI and LC50 response parameters.
# [4] = Homo sapiens, 144 h, Table 10, mean ± S.E., 4 or more experiments, read-out: IC50 (μM) 6dMTT
# [5] = Table 10, read-out: Tumor Cell Mean log GI50 (converted)
# [6] = Table 9, mean ± S.E., 4 or more experiments, read-out: IC50 (μM) 6dMTT
# [7] = Homo sapiens, 144 h, Table 8, mean+S.E., 4 or more experiments, read-out: IC50 (μM) 6 dMTT
# [8] = Homo sapiens, 144 h, Table 9, mean ± S.E., 4 or more experiments, read-out: IC50 (μM) 6dMTT
# [9] = Table 9, read-out: Tumor cell Mean log GI50 (converted)
# [10] = Homo sapiens, 144 h, Table 4, read-out: IC50 (6d MTT)
smiles,measurement,setting,value
COC(=O)c1ccc(CCc2cc(O)ccc2O)cc1,IC50,"[1]; Table 10, mean ± S.E.",2.64 ± 0.99 µM
same,IC50,[2]; [4],18.5 ± 5.62 µM
same,GI50,[3]; [5],10 µM
same,Tumor Cell Mean log TGI,[3]; Table 10,−4.43
CC(C)OC(=O)c1ccc(CCc2cc(O)c(Br)cc2O)cc1,IC50,"[1]; Table 10, mean ± S.E.",5.77 ± 0.53 µM
same,IC50,[2]; [4],20 ± 0.7 µM
same,GI50,[3]; [5],7.59 µM
same,Tumor Cell Mean log TGI,[3]; Table 10,−4.50
O=C(O)c1ccc(CCc2cc(O)ccc2O)cc1O,IC50,"[1]; Table 10, mean ± S.E.",13 ± 1.03 µM
same,IC50,"[2]; Table 10, mean ± S.E., 4 or more experiments, read-out: IC50 (μM) 6dMTT",33.4 ± 4.8 µM
same,Tumor Cell Mean log GI50,[3]; Table 10,−4.06
same,Tumor Cell Mean log TGI,[3]; Table 10,−4.01
"COC(=O)c1cc(NCc2cc(O)cc(Br)c2O)ccc1Cl [4′-chloro-5′-methylbenzoate-1′-N-3-bromo-2,5-dihydroxybenzylamine]",IC50,"[1]; Table 9, mean ± S.E.",3.56 ± 0.53 µM
same,IC50,[2]; [6],8.9 ± 0.5 µM
same,Tumor Cell Mean log GI50,[3]; Table 9,−4.86
same,Tumor Cell Mean log TGI,[3]; Table 9,−4.43
"Oc1ccc(O)c(CNc2ccc(C(O)C(F)(F)F)cc2)c1 (centres unmarked) [CH(OH)CF3 / H / H, 4′-(trifluoromethylethanol)-1′-N-2,5-dihydroxybenzylamine]",IC50,"[1]; Table 8, mean+S.E.",0.57 µM
same,IC50,[2]; [7],14.3 µM
same,Tumor Cell Mean log GI50,[3]; Table 8,−4.82
same,Tumor Cell Mean log TGI,[3]; Table 8,−4.34
"NC(=O)c1ccc(NCC2=CC(=O)C=CC2=O)cc1 [CONH2 / H / 2,5-quinoyl]",IC50,"[1]; Table 9, mean ± S.E.",5.1 ± 0.3 µM
same,IC50,[2]; [6],21.7 ± 2.27 µM
same,Tumor Cell Mean log GI50,[3]; Table 9,−4.59
same,Tumor Cell Mean log TGI,[3]; Table 9,−4.31
NC(=O)c1ccc(NCc2cc(O)ccc2O)cc1 [CONH2 / H / H],IC50,"[1]; Table 8, mean+S.E.",4.23 µM
same,IC50,[2]; [7],20.9 µM
same,Tumor Cell Mean log GI50,[3]; Table 8,−4.53
same,Tumor Cell Mean log TGI,[3]; Table 8,−4.26
"CC(C)N(C(=O)c1ccc(NCc2cc(O)ccc2O)cc1)C(C)C [CON[CH(CH3)2]2 / H / H, 4′-diisopropylbenzamide-N-2,5-dihydroxybenzylamine]",IC50,"[1]; Table 8, mean+S.E.",2.36 µM
same,IC50,[2]; [7],18.2 µM
same,Tumor Cell Mean log GI50,[3]; Table 8,−4.88
same,Tumor Cell Mean log TGI,[3]; Table 8,−4.36
"CC(C)(C)OC(=O)c1ccc(NCC2=CC(=O)C=CC2=O)cc1 [COOC(CH3)3 / H / 2,5-quinoyl]",IC50,"[1]; Table 9, mean ± S.E.",25.9 ± 9.02 µM
same,IC50,[2]; [8],25.4 ± 1.88 µM
same,GI50,[3]; [9],8.13 µM
same,Tumor Cell Mean log TGI,[3]; Table 9,−4.67
"O=C1C=CC(=O)C(CNc2ccc(C(=O)OCc3ccccc3)cc2)=C1 [COOCH2—C6H6 / H / 2,5-quinoyl]",IC50,"[1]; Table 9, mean ± S.E.",8.75 ± 1.25 µM
same,IC50,[2]; [8],22.8 ± 18 µM
same,GI50,[3]; [9],5.01 µM
same,Tumor Cell Mean log TGI,[3]; Table 9,−4.78
"COC(=O)c1ccc(NCC2=CC(=O)C=CC2=O)cc1 [COOCH3 / H / 2,5-quinoyl]",IC50,"[1]; Table 9, mean ± S.E.",15.9 ± 2.91 µM
same,IC50,[2]; [8],15.1 ± 1.28 µM
same,GI50,[3]; [9],2.51 µM
same,Tumor Cell Mean log TGI,[3]; Table 9,−4.8
"COC(=O)c1ccc(NCc2cc(O)ccc2O)cc1 [COOCH3 / H / H, reference compound]",IC50,"[1]; Table 8, mean+S.E.",2.9 µM
same,IC50,"[2]; Table 8, mean+S.E., 4 or more experiments, read-out: IC50 (μM) 6 dMTT",16.6 µM
same,Tumor Cell Mean log GI50,[3]; Table 8,−4.95
same,Tumor Cell Mean log TGI,[3]; Table 8,−4.52
COC(=O)c1ccc(NCc2cc(O)ccc2O)cc1O [COOCH3 / OH / H],IC50,"[1]; Table 8, mean+S.E.",6.44 µM
same,IC50,[2]; [7],17.7 µM
same,Tumor Cell Mean log GI50,[3]; Table 8,−5.23
same,Tumor Cell Mean log TGI,[3]; Table 8,−4.70
CC(C)OC(=O)c1ccc(CCC2=CC(=O)C(Br)=CC2=O)cc1 [Compound 32],IC50 (p210^ber-abi in vitro phosphorylation),[1],No Effect
same,IC50,[2]; [10],10 µM
COC(=O)c1ccc(/C=C/C2=CC(=O)C=CC2=O)cc1 [Compound 33],IC50 (p210^ber-abi in vitro phosphorylation),[1],No Effect
same,IC50,[2]; [10],7.5 µM
